Source: PubChem BioAssay AID1745844 (Carcinogenic Potency Database (CPDB), 2022)
Calls of active or inactive are those of the source. No rule for the calls is given here.

System: rodent lifetime carcinogenesis bioassay, tumor incidence TD50
Experiment: chronic cancer bioassays in animals – CPDB, compiled studies (AID 1745844)

For `Nc1c(Cl)c(Cl)nc(C(=O)O)c1Cl`, the carcinogen call (mouse, strain B6C3F1, females, in feed, site: any site (literature study), lesion: several types, types named in the paper, dosed 80 weeks, study length 90 weeks) was “negative (inactive)”, the TD50 (mouse, strain B6C3F1, females, in feed, site: liver, lesion: hepatocellular adenoma + hepatocellular carcinoma + neoplastic nodule, dosed 80 weeks, study length 90 weeks) was 20100 mg/kg/day and the carcinogen call (mouse, strain B6C3F1, males, in feed, site: any site (literature study), lesion: several types, types named in the paper, dosed 80 weeks, study length 90 weeks) was “negative (inactive)”. For the same molecule, the TD50 (rat, strain Fischer 344, females, in feed, site: liver, lesion: hepatocellular adenoma, dosed 104 weeks, study length 104 weeks) was 15800 mg/kg/day (inactive), the carcinogen call (rat, strain Fischer 344, females, in feed, site: thyroid gland, lesion: parafollicular-cell adenoma, dosed 104 weeks, study length 104 weeks) was “negative (inactive)” and the TD50 (rat, strain Fischer 344, males, in feed, site: liver, lesion: hepatocellular adenoma, dosed 104 weeks, study length 104 weeks) was 5560 mg/kg/day (inactive). The TD50 (rat, strain Fischer 344, males, in feed, site: liver, lesion: hepatocellular carcinoma, dosed 104 weeks, study length 104 weeks) was 8710 mg/kg/day (inactive), the carcinogen call (rat, strain Osborne-Mendel, females, in feed, site: any site (literature study), lesion: several types, types named in the paper, dosed 80 weeks, study length 113 weeks) was “negative (inactive)” and the TD50 (rat, strain Osborne-Mendel, females, in feed, site: liver, lesion: hepatocellular adenoma + hepatocellular carcinoma + neoplastic nodule, dosed 80 weeks, study length 113 weeks) was 1640 mg/kg/day. For the same molecule, the TD50 (rat, strain Osborne-Mendel, females, in feed, site: liver, lesion: neoplastic nodule, dosed 80 weeks, study length 111 weeks) was 1700 mg/kg/day, the TD50 (rat, strain Osborne-Mendel, males, in feed, site: any site (literature study), lesion: several types, types named in the paper, dosed 80 weeks, study length 113 weeks) was 2930 mg/kg/day (inactive) and the TD50 (rat, strain Osborne-Mendel, males, in feed, site: liver, lesion: hepatocellular adenoma + hepatocellular carcinoma + neoplastic nodule, dosed 80 weeks, study length 113 weeks) was 1320 mg/kg/day.

With `Nc1c(N=Nc2ccc([N+](=O)[O-])cc2)c(S(=O)(=O)O)cc2cc(S(=O)(=O)O)c(N=Nc3ccccc3)c(O)c12` the carcinogen call (rat, strain Not specified, females, in feed, site: any site (literature study), lesion: several types, types named in the paper, dosed 64 weeks, study length 64 weeks) was “negative (inactive)”, the carcinogen call (rat, strain Not specified, females, in feed, site: liver, lesion: one or several types, types not named, dosed 64 weeks, study length 64 weeks) was “negative (inactive)” and the carcinogen call (rat, strain Not specified, males, in feed, site: any site (literature study), lesion: several types, types named in the paper, dosed 64 weeks, study length 64 weeks) was “negative (inactive)”. For the same molecule, the carcinogen call (rat, strain Not specified, males, in feed, site: liver, lesion: one or several types, types not named, dosed 64 weeks, study length 64 weeks) was “negative (inactive)”.

`ON=C1CCCC1` showed a TD50 (rat, strain Fischer 344, males, by gavage, site: liver, lesion: hepatocellular carcinoma, dosed 50 weeks, study length 83 weeks) of 70.7 mg/kg/day and a TD50 (rat, strain Fischer 344, males, by gavage, site: liver, lesion: several types, types named in the paper, dosed 50 weeks, study length 83 weeks) of 40.9 mg/kg/day.

`Nc1nc(-c2ccc([N+](=O)[O-])o2)cs1` gave a TD50 (mouse, strain Swiss, females, in feed, site: any site (literature study), lesion: several types, types named in the paper, dosed 46 weeks, study length 55 weeks) of 6.83 mg/kg/day, a TD50 (mouse, strain Swiss, females, in feed, site: forestomach, lesion: several types, types named in the paper, dosed 46 weeks, study length 55 weeks) of 7.87 mg/kg/day and a TD50 (mouse, strain Swiss, females, in feed, site: forestomach, lesion: squamous-cell papilloma, dosed 46 weeks, study length 55 weeks) of 11.5 mg/kg/day. For the same molecule, the TD50 (rat, strain Fischer, females, in feed, site: forestomach, lesion: several types, types named in the paper, dosed 52 weeks, study length 68 weeks) was 5.85 mg/kg/day, the TD50 (rat, strain Fischer, females, in feed, site: forestomach, lesion: squamous-cell papilloma, dosed 52 weeks, study length 68 weeks) was 8.94 mg/kg/day and the TD50 (rat, strain Fischer, females, in feed, site: urinary bladder, lesion: several types, types named in the paper, dosed 52 weeks, study length 68 weeks) was 30.3 mg/kg/day.

In the case of `C=CF`, the TD50 (mouse, strain Charles River CD1, females, inhaled, site: Harderian gland, lesion: adenoma, dosed 67 weeks, study length 74 weeks) is reported as 4010 mg/kg/day, the TD50 (mouse, strain Charles River CD1, females, inhaled, site: liver, lesion: hemangiosarcoma, dosed 67 weeks, study length 74 weeks) is reported as 25.4 mg/kg/day and the TD50 (mouse, strain Charles River CD1, females, inhaled, site: lung, lesion: alveolar/bronchiolar adenoma, dosed 67 weeks, study length 74 weeks) is reported as 54.6 mg/kg/day. It also gave a TD50 (mouse, strain Charles River CD1, females, inhaled, site: lung, lesion: several types, types named in the paper, dosed 67 weeks, study length 74 weeks) of 54.6 mg/kg/day, a TD50 (mouse, strain Charles River CD1, females, inhaled, site: mammary gland, lesion: adenocarcinoma, dosed 67 weeks, study length 74 weeks) of 13.6 mg/kg/day and a TD50 (mouse, strain Charles River CD1, females, inhaled, site: mammary gland, lesion: several types, types named in the paper, dosed 67 weeks, study length 74 weeks) of 13.6 mg/kg/day. The TD50 (mouse, strain Charles River CD1, males, inhaled, site: Harderian gland, lesion: adenoma, dosed 63 weeks, study length 78 weeks) was 1000 mg/kg/day, the TD50 (mouse, strain Charles River CD1, males, inhaled, site: liver, lesion: hemangiosarcoma, dosed 63 weeks, study length 78 weeks) was 19.4 mg/kg/day and the TD50 (mouse, strain Charles River CD1, males, inhaled, site: liver, lesion: hepatocellular adenoma, dosed 63 weeks, study length 78 weeks) was 34.6 mg/kg/day. The TD50 (mouse, strain Charles River CD1, males, inhaled, site: lung, lesion: alveolar/bronchiolar adenocarcinoma, dosed 63 weeks, study length 78 weeks) was 12300 mg/kg/day, the TD50 (mouse, strain Charles River CD1, males, inhaled, site: lung, lesion: alveolar/bronchiolar adenoma, dosed 63 weeks, study length 78 weeks) was 5.78 mg/kg/day and the TD50 (mouse, strain Charles River CD1, males, inhaled, site: lung, lesion: several types, types named in the paper, dosed 63 weeks, study length 78 weeks) was 5.78 mg/kg/day. For the same molecule, the TD50 (rat, strain Charles River CD (Sprague-Dawley), females, inhaled, site: Zymbal's gland, lesion: squamous-cell carcinoma, sebaceous, dosed 52 weeks, study length 52 weeks) was 639 mg/kg/day, the TD50 (rat, strain Charles River CD (Sprague-Dawley), females, inhaled, site: Zymbal's gland, lesion: squamous-cell carcinoma, sebaceous, dosed 78 weeks, study length 78 weeks) was 684 mg/kg/day and the TD50 (rat, strain Charles River CD (Sprague-Dawley), females, inhaled, site: Zymbal's gland, lesion: squamous-cell carcinoma, sebaceous, dosed 93 weeks, study length 103 weeks) was 1470 mg/kg/day. For the same molecule, the TD50 (rat, strain Charles River CD (Sprague-Dawley), females, inhaled, site: liver, lesion: hemangiosarcoma, dosed 93 weeks, study length 103 weeks) was 16.6 mg/kg/day, the TD50 (rat, strain Charles River CD (Sprague-Dawley), females, inhaled, site: liver, lesion: hepatocellular adenoma, dosed 93 weeks, study length 103 weeks) was 183 mg/kg/day and the TD50 (rat, strain Charles River CD (Sprague-Dawley), females, inhaled, site: liver, lesion: hepatocellular carcinoma, dosed 78 weeks, study length 78 weeks) was 1440 mg/kg/day. It also gave a TD50 (rat, strain Charles River CD (Sprague-Dawley), females, inhaled, site: liver, lesion: hepatocellular carcinoma, dosed 93 weeks, study length 103 weeks) of 7770 mg/kg/day, a TD50 (rat, strain Charles River CD (Sprague-Dawley), females, inhaled, site: liver, lesion: several types, types named in the paper, dosed 78 weeks, study length 78 weeks) of 7380 mg/kg/day and a TD50 (rat, strain Charles River CD (Sprague-Dawley), females, inhaled, site: liver, lesion: several types, types named in the paper, dosed 93 weeks, study length 103 weeks) of 183 mg/kg/day. It also gave a TD50 (rat, strain Charles River CD (Sprague-Dawley), males, inhaled, site: Zymbal's gland, lesion: squamous-cell carcinoma, sebaceous, dosed 52 weeks, study length 52 weeks) of 213 mg/kg/day, a TD50 (rat, strain Charles River CD (Sprague-Dawley), males, inhaled, site: Zymbal's gland, lesion: squamous-cell carcinoma, sebaceous, dosed 93 weeks, study length 103 weeks) of 1090 mg/kg/day and a TD50 (rat, strain Charles River CD (Sprague-Dawley), males, inhaled, site: liver, lesion: hemangiosarcoma, dosed 93 weeks, study length 103 weeks) of 25 mg/kg/day. It also gave a TD50 (rat, strain Charles River CD (Sprague-Dawley), males, inhaled, site: liver, lesion: hepatocellular adenoma, dosed 93 weeks, study length 103 weeks) of 200 mg/kg/day.

`CCCCOC(=O)c1ccc(O)cc1` was tested, and the TD50 (mouse, strain ICR/Jcl, females, in feed, site: any site (literature study), lesion: several types, types named in the paper, dosed 102 weeks, study length 106 weeks) was 2720 mg/kg/day (inactive), the carcinogen call (mouse, strain ICR/Jcl, females, in feed, site: liver, lesion: one or several types, types not named, dosed 102 weeks, study length 106 weeks) was “negative (inactive)” and the TD50 (mouse, strain ICR/Jcl, females, in feed, site: lung, lesion: one or several types, types not named, dosed 102 weeks, study length 106 weeks) was 5100 mg/kg/day (inactive). The TD50 (mouse, strain ICR/Jcl, males, in feed, site: any site (literature study), lesion: several types, types named in the paper, dosed 102 weeks, study length 106 weeks) was 5240 mg/kg/day (inactive), the TD50 (mouse, strain ICR/Jcl, males, in feed, site: liver, lesion: one or several types, types not named, dosed 102 weeks, study length 106 weeks) was 27400 mg/kg/day (inactive) and the TD50 (mouse, strain ICR/Jcl, males, in feed, site: lung, lesion: one or several types, types not named, dosed 102 weeks, study length 106 weeks) was 119000 mg/kg/day (inactive).
